Data as given in patent US20210369667A1, “COMPOSITIONS AND METHODS FOR THE PREVENTION AND TREATMENT OF RADIATION DERMATITIS, ECZEMA, BURNS, WOUNDS AND CERTAIN CANCERS” (VIZURI HEALTH SCIENCES CONSUMER HEALTHCARE, INC., priority 2019, published 2021).
Values belong to the molecule of their own block, whether it stands above or below them.

How the values were obtained:
[1] = Apigenin solubility in NaOH solutions; format: physicochemical; conditions: sodium hydroxide solution, aqueous buffer
Source text: A good solubility of polyphenols in the alkaline medium is very important in generating well hydrated polyphenols upon acidification. The regenerated hydrated products mix well in the formulations. Sodium hydroxide solution is an effective solubilizer at different concentrations for apigenin, a polyphenol flavonoid. This is exemplified in the table below— Apigenin Solubility in NaOH Solutions [table]

[2] = tested on: acute radiation dermatitis; conditions: 49 patients; prophylactic MMF with emollient cream vs emollient cream alone; cited from earlier work
[3] = SEM particle morphology of hydrated apigenin; format: physicochemical
Source text: Scanning Electron Microscopy (SEM) images of the hydrated apigenin, and unprocessed apigenin powder were collected to determine particle morphology details. […] The chemical composition as determined by FTIR and Raman Spectroscopy, could not detect any chemical differences in the unprocessed apigenin and the hydrated apigenin. […] The hydrated apigenin was composed of fibers with diameters of 30-500 nm (a range of being nano-fibers) with aspect ratios measuring greater than 20.

- solubility ([1]; NaOH Molarity 0.75 moles/liter): > 150 mg/mL
- solubility ([1]; NaOH Molarity 1.015 moles/liter): > 200 mg/mL
- solubility ([1]; NaOH Molarity 2.0 moles/liter): > 300 mg/mL
Compound: O=c1cc(-c2ccc(O)cc2)oc2cc(O)cc(O)c12 [Apigenin]

Compound: C[C@@H]1C[C@H]2[C@@H]3CCC4=CC(=O)C=C[C@]4(C)[C@@]3(Cl)[C@@H](O)C[C@]2(C)[C@@]1(OC(=O)c1ccco1)C(=O)CCl [MMF, mometasone furoate]
- acute radiation dermatitis [2]: significantly decreased acute radiation dermatitis

- aspect ratios of fibers [3]: greater than 20
- fiber diameters [3]: 30-500 nm
Compound: O=c1cc(-c2ccc(O)cc2)oc2cc(O)cc(O)c12 [hydrated apigenin]
